Measurements from US20240060113A1, “PRESERVATION OF FETAL NUCLEIC ACIDS IN MATERNAL PLASMA” (STRECK LLC, priority 2009, published 2024).

System: non-human (lambda) DNA
Test: Lambda DNA spiked into plasma, stored at room temperature, Quantitative PCR (Example 2, FIG. 3)
Settings: plasma stored at room temperature 0 to 14 days
Protocol: Blood samples from the same donor are drawn into two different types of blood collection tubes. One tube contains 500 g/L IDU, 81 g/L Tripotassium EDTA and 47 g/L glycine. The other tube contains only Heparin. All samples are centrifuged at 2100 g for 30 minutes at room temperature to separate the plasma. The plasma is then transferred to new tubes and non-human (lambda) DNA is then spiked into the plasma tubes. The spiked samples are then stored at room temperature for 0, 1, 2, 3, 4, 7, 11, and 14 days. Free circulating DNA is purified using the QIAamp® DNA Blood Mini Kit available from QIAGEN Inc. (Valencia, CA). DNA is extracted from each plasma sample. The samples are then amplified by Quantitative PCR (using iQ SYBR Green Supermix reagents available from BIO-RAD Laboratories (Hercules, California)) to identify the amount of lambda DNA present. […] The expected results of this example are shown in graphic format at FIG. 3. This example confirms that the compositions of the present invention are able to maintain the integrity and amount of DNA present in a blood sample.

## Heparin
  relative percentage of lambda DNA present: decreases at every consecutive measurement
